In a melting point compilation (Tetko et al.; mined from patent text by program, amines drawn as free bases though some values may be those of a salt) one finds melting point data, which are given here for 88 compounds.

Turning to `O=C(c1ccccc1Cl)c1c(O)nn(-c2c(Cl)cc(Cl)cc2Cl)c1N1C(=O)c2ccccc2C1=O`, the melting point fell in the range of 245 to 246 °C.
In the case of `CN1OCCN(c2ccc(Cl)c(C(F)(F)F)c2)C1=O` it was 72 to 73 °C; in that of `CCCCCC(C)C(C)c1cc(O)c2c(c1)OC(C)(C)C1=C2CN(CC(=O)NC(=O)Nc2ccccc2)CC1` (stereo not drawn), 159 to 161 °C.
Under `CCCCCCCCC(Cc1cccnc1)(C(=O)O)S(=O)(=O)c1ccc(OC)cc1` (stereo not drawn) stands 159 °C.
In the case of `Cc1ccc(COCc2c(C(C)C)cc(C(C)C)c(C(C)O)c2-c2ccc(F)cc2)cc1` (single isomer, unassigned; (+)) it was 84 to 86 °C; in that of `c1ccc2c(c1)OCCc1c-2n(Cc2ccc(OCCCN3CCCCC3)cc2)c2ccccc12`, 129 to 130 °C.
Compound `CCOC(=O)COC1CCC2C3CCC4NC(=O)CCC4(C)C3CCC12C` (stereo not drawn) showed a melting point of 170 to 172 °C.
Under `O=C(Oc1ccccc1)c1cc(Cl)c2ccccc2c1O` stands 102 to 104 °C; under `Brc1ccc(Cc2ccc(Br)cc2)cc1`, 62 to 62.5 °C; under `C[C@@H](n1cnc2c(Cl)cccc2c1=O)[C@](O)(Cn1cncn1)c1ccc(F)cc1F`, 110 to 113 °C.
Under `N#Cc1ccc(CCC(=O)c2ccc(C#N)cc2)cc1` stands 149 to 152 °C.
In the case of `Nc1ccc2c(c1)SN(CCCCN1CCN(c3ncccn3)CC1)C2` it was 150 to 151 °C; in that of `COc1ccc(-c2nc3ccccc3n3cncc23)cc1`, 187 to 188 °C.
As for `CC12CC(N3CCCCC3)CCC1CCC1C2CCC2(C)C(O)C(N3CCCCC3)CC12` (stereo not drawn), the melting point lay within 176 to 181 °C.
In the case of `COc1ccc(CCCOS(C)(=O)=O)cc1OCc1coc(/C=C/c2ccccc2)n1` it was 112 to 113 °C; in that of `CC(=O)c1c[nH]c(-c2ccccc2)n1`, 158 °C; in that of `CN1CCN(c2cccc(-c3cnn4c(N)c(Cc5cccc(Br)c5)cnc34)c2)CC1`, 170 to 171 °C.
Under `COc1cc(C(=O)O)ccc1Cc1c(Cl)n(C)c2ccc(CC3CCN(C)C3=O)cc12` (stereo not drawn) stands 204 to 205 °C; under `CC(C)(C)OC(=O)N1CCC[C@H](COc2cccnc2Br)C1`, 79 to 81 °C.
Turning to `NC(=O)CNC(=O)c1cccc(-c2cccc3oc(Cc4cccc(C(F)(F)F)c4)cc23)c1`, the melting point was in the range of 105 to 106 °C.
In the case of `CCCCC(CC)c1nc2cc(O)c(C#N)c(C)n2n1` (stereo not drawn) it was 253 to 254 °C; in that of `COC(=O)c1ccc(OCCCC#N)c(Cl)c1`, 144 °C.
In the case of `O=C1CCC(c2ccc(N=C3NCCN3)cc2)=NN1` it was 235 to 236 °C; in that of `COC(=O)C1=NNC(C)=C(C(=O)OC)C1c1ccccc1[N+](=O)[O-]` (stereo not drawn), 203 to 205 °C.
In turn, `CC(C)(Oc1ccc(CCC(O)c2ccc(-c3ccc(C(F)(F)F)cc3)s2)c(Cl)c1Cl)C(=O)O` (stereo not drawn) showed a melting point of 54 to 56 °C.
Under `Cc1cc2cc(CN3CCCCCC3)cnc2cc1NC(=O)c1ccc(-c2ccc(Cl)s2)cc1` stands 180 °C; under `OCc1ccc(OCc2ccccc2)c2c1OCCO2`, 106 °C.
In the case of `CCOc1cc(-c2cc(C(F)(F)F)n3ncc(C(=O)Nc4nc(C)c(S(=O)(=O)NC(C)(C)CO)s4)c3n2)ccc1C(F)(F)F` it was 276 °C; in that of `Cc1ccccc1C1=NOC2(C1)OC(=O)c1ccccc12` (stereo not drawn), 146 to 149 °C; in that of `Cc1c(NC(=O)c2ccc(-c3ccccc3)c(F)c2)ccc2cc(CN3CCCCC3)cnc12`, 138 to 139 °C.
In the case of `COc1cc(I)ccc1-c1ccccc1` it was 57 °C; in that of `CCOC(=O)c1c(N)sc(N)c1C(=O)OCC`, 155 to 158 °C; in that of `COc1ccc(N2CCN(c3c(C)c(C)c4c(c3C)C(CN3CCCCC3)C(C)(C)O4)CC2)cc1` (stereo not drawn), 144 to 145 °C.
As to `C=C(C)C(=O)NCCCNC(=O)OC(C)(C)C`, the melting point came out at 85.8 °C.
Under `CC[C@H]1CNC[C@H]1NC(=O)OC(C)(C)C` stands 63.5 to 65.5 °C; under `N#Cc1c(OCc2ccc(F)cc2F)ccn(Cc2cccc(F)c2)c1=O`, 187 to 190 °C; under `CCCn1nc(-c2ccc(OC(=O)CC(C)(C)C)c(F)c2)c2cccc(Cl)c21`, 58 to 59 °C.
With `CN1N=C(c2ccc(F)cc2)c2cc(F)ccc2CS1(=O)=O`, the melting point was in the range of 169 to 171 °C.
In the case of `C=CCN1C(=S)N(c2cccc(Oc3ccccc3)c2)C(=O)C1C` (stereo not drawn) it was 88 °C.
Under `CC(C)CCOc1ccc(S(=O)(=O)C2(C(=O)O)CCN(Cc3ccccc3)CC2)cc1` stands 106 °C; under `COc1cc2c(cc1OC)CCN(CCCN(C)C1CCc3cc(OC)c(OC)cc3C1)C=C2` (stereo not drawn), 115 to 116 °C.
Under `OCc1cc(Cl)ccc1I` stands 115 to 117 °C; under `Fc1cccc(CC2(Cc3cccc(F)n3)c3cccnc3-c3ncccc32)n1`, 221 to 225 °C.
Turning to `Cc1ccc(S(=O)(=O)NC(=O)/C=C/c2c(C)nn(C)c2-n2ccc3cccnc32)cc1`, the melting point was 237 to 238 °C.
Under `CCCCCCCCCCCCCCc1cccc(O)c1` stands 38 to 40 °C; under `CCN1CCC2(CC1)COc1cc3c(cc12)N(C(=O)c1ccc(-c2ccc(C(=O)NN)cc2C)cc1)CC3`, 222 to 225 °C; under `CS(=O)(=O)c1ccc(-c2sc(-c3ccccc3Cl)nc2-c2cccc(F)c2)cc1`, 134 to 135 °C.
In the case of `O=C(O)c1cccc2ncc(-c3ccccc3)cc12` it was above 290 °C; in that of `CC(C)C(NC(=O)Cn1cc(Cc2ccccc2)cc(NC(=O)OCc2ccccc2)c1=O)C(=O)C(F)(F)F` (stereo not drawn), 58 to 64 °C; in that of `O=C(c1cccnc1)N1CC2CSc3ccccc3C2=N1` (stereo not drawn), 173 to 175 °C.
In the case of `CCCCCC(=O)c1ccc(O)c(C(=O)O)c1` it was 48 to 49 °C; in that of `COc1ccccc1N1CCN(S(=O)(=O)c2ccc(Nc3ccnc4cc(C(F)(F)F)ccc34)cc2)CC1`, 146 to 148 °C.
`FC(F)(F)CC1(CC2(CC(F)(F)F)N=c3cc(Cl)c(Cl)cc3=N2)N=c2cc(Cl)c(Cl)cc2=N1`: the melting point was 235 to 237 °C.
The compound `O=c1[nH]c2ccccc2n2ccnc12` registered a melting point above 300 °C.
In turn, `CN(C)C1(c2ccccc2)CCC(=CC(=O)NCCc2ccccc2)CC1` (stereo not drawn) gave a melting point of 153 to 155 °C.
Consider `C1=C(c2ccccc2)CC(CN2CCN(c3ccccn3)CC2)C1` (stereo not drawn), for which the melting point is 100 to 101 °C.
Under `COC(=O)CCN(CC1CC2c3cccc4[nH]cc(c34)CC2N(C)C1)C(=O)NC(C)C` (stereo not drawn) stands 112 to 115 °C; under `COC(=O)C1OC(OC(=O)C(C)C)C(OC(=O)C(C)C)C(OC(=O)C(C)C)C1OC(=O)C(C)C` (stereo not drawn), 127 °C.
As to `O=c1c2cc(Cl)ccc2nc2n1CS(=O)(=O)N2`, the melting point was above 300 °C.
In the case of `CC(C)(Oc1ccc(C#N)cc1)C(O)=Cc1ccncn1` it was 115 to 117 °C; in that of `CCc1cccc2c3c([nH]c12)C(CC)(CC(C)O)OCC3` (stereo not drawn), 103 to 104 °C; in that of `OC(Cc1ccc(F)cc1)c1ccc(F)cc1` (stereo not drawn), 48 to 50 °C.
In the case of `CCc1nc(C)c2nnc3ccc(F)cc3n12` it was 187 to 190 °C; in that of `CNn1c(SC)nnc(-c2ccccc2)c1=O`, 119 to 120 °C; in that of `CC(C)[C@H](CC1C(=O)OC(C)(C)OC1=O)NC(=O)OC(C)(C)C`, 108 to 112 °C.
The compound `CCOC(=O)c1ccccc1NC(=O)CBr` displayed a melting point of 65 to 66 °C.
In the case of `CCCCCCCNC(=O)c1ccc(CCCC)cc1` it was 37 to 38 °C; in that of `O=C1C=C(O)CC(c2ccccc2)O1` (stereo not drawn), 145 to 146 °C.
Take `COC(=O)c1nc(-c2ccc(Cl)cc2F)cc(N)c1OC`: the melting point was in the range of 139 to 144 °C.
In the case of `COC(=O)c1[nH]c(-c2ccccc2)c(NC(N)=O)c1C(=O)OC` it was 246 to 248 °C; in that of `COc1cccc(N2CCN(Cc3cn4cc(Cl)ccc4n3)CC2)c1`, 132 to 134 °C.
Turning to `Cc1nc(N2CCN(Cc3ccc(C(F)(F)F)cc3)C2=O)sc1C(=O)NCc1cccnc1`, the melting point was 107 to 108 °C.
In turn, `CC=C1OC(=O)c2c(OC)cccc21` displayed a melting point of 106 to 109 °C.
In the case of `FC(F)(F)c1[nH]c(-c2cccc(Cl)c2)nc1Br` it was 137 to 144 °C; in that of `CC(=O)NC(=O)CSC(=O)Cc1ccccc1`, 123 to 124 °C; in that of `CCc1cc(C=C(C#N)C#N)ccc1N=C1SCC2(CCCC2)N1C1CCCC1`, 135 to 136 °C.
Under `CC(C)(C)OC(=O)N[C@@H](Cc1ccccc1)C(=O)N[C@H]1CCOC1=O` stands 132 to 133 °C; under `CC(CCc1cc2cccnc2n(-c2cccc(N)c2)c1=O)c1ccncc1` (stereo not drawn), 83 to 91 °C.
Under `CCc1nc2ccccc2c(=O)n1CCNc1ccc(SC(C)(C)C(=O)O)cc1` stands 124 to 126 °C; under `OCc1cc(Nc2nc(-c3ccccc3)nc3ccccc23)[nH]n1`, 238 to 239 °C; under `Cc1ncsc1CCNC(=O)c1cnc(N2CCN(C(=O)c3c(-c4ccccc4)n(C)c4cccnc34)CC2)cn1`, 225 °C.
In turn, `CCOC(=O)C(O)=CC=C(SC)C(=O)c1ccc(N2CCCCC2)cc1` showed a melting point of 65 °C.
Under `FC(F)(F)Sc1ccc(C=Cc2nc(CCl)cs2)cc1` stands 133 to 134 °C.
In the case of `CC(=O)CNC1(c2ccc(OC(C)=O)cc2)Sc2ccccc2N(C)C1=O` (stereo not drawn) it was 182 to 184 °C; in that of `CCNc1nc(-c2ccc(F)cc2)c(-c2ccc(S(C)(=O)=O)cc2)s1`, 218 to 219 °C.
Under `CCCNc1cccc(-c2ccnc3c(C(=O)c4cccs4)cnn23)c1` stands 128 to 130 °C.
`O=C(CBr)Nc1c(C(F)(F)F)cc(OCc2ccccc2)cc1C(F)(F)F`: the melting point was 173 to 175 °C.
Under `NS(=O)(=O)c1nnc(NC(=O)c2cnn3c(C(F)F)cc(-c4ccc(C(F)(F)F)cc4)nc23)s1` stands 284 °C.
